Results from the NIST ThermoML archive (doi:10.1021/je900210h).

Settings: Fluid (supercritical or subcritical phases), Coaxial cylinder method

FCC(F)(F)F [1,1,1,2-tetrafluoroethane]
Settings | thermal conductivity [W/m/K]
376.41 K, 4184 kPa | 0.0684
376.42 K, 3872 kPa | 0.0315
376.44 K, 3783 kPa | 0.0303
376.44 K, 4178 kPa | 0.0661
376.44 K, 4354 kPa | 0.0663
376.46 K, 3783 kPa | 0.0297
376.48 K, 3675 kPa | 0.0288
376.48 K, 4174 kPa | 0.0639
376.5 K, 3593 kPa | 0.0281
376.51 K, 2527 kPa | 0.0229
376.51 K, 3504 kPa | 0.0275
376.51 K, 4168 kPa | 0.0618
376.52 K, 4404 kPa | 0.0612
376.53 K, 3468 kPa | 0.0269
376.54 K, 4470 kPa | 0.059
376.54 K, 4580 kPa | 0.0586
376.55 K, 3302 kPa | 0.0263
376.55 K, 4165 kPa | 0.0598
376.56 K, 3210 kPa | 0.0257
376.57 K, 4451 kPa | 0.0587
376.58 K, 4158 kPa | 0.0579
376.59 K, 3210 kPa | 0.0248
376.6 K, 3210 kPa | 0.0246
376.61 K, 3210 kPa | 0.0244
376.61 K, 4150 kPa | 0.0562
376.65 K, 4147 kPa | 0.0545
376.68 K, 4141 kPa | 0.0524
376.68 K, 4680 kPa | 0.0583
376.69 K, 4140 kPa | 0.0427
376.73 K, 4100 kPa | 0.0395
376.78 K, 4040 kPa | 0.0364
376.81 K, 3990 kPa | 0.0346
376.82 K, 4117 kPa | 0.047
376.82 K, 4820 kPa | 0.0577
376.82 K, 4860 kPa | 0.0575
376.87 K, 3880 kPa | 0.0318
376.87 K, 4101 kPa | 0.0452
376.87 K, 4504 kPa | 0.0571
376.89 K, 4548 kPa | 0.0562
376.9 K, 3800 kPa | 0.0304
376.92 K, 3740 kPa | 0.0295
376.95 K, 3650 kPa | 0.0285
376.96 K, 2027 kPa | 0.0218
376.98 K, 3510 kPa | 0.0274
377.01 K, 4289 kPa | 0.072
377.01 K, 4294 kPa | 0.0724
377.01 K, 4307 kPa | 0.0724
377.01 K, 4309 kPa | 0.072
377.01 K, 4312 kPa | 0.0717
377.02 K, 4322 kPa | 0.0706
377.02 K, 4332 kPa | 0.0691
377.03 K, 4343 kPa | 0.0674
377.04 K, 4356 kPa | 0.0661
377.05 K, 4380 kPa | 0.0636
377.05 K, 4384 kPa | 0.0634
377.06 K, 4397 kPa | 0.0625
377.06 K, 4417 kPa | 0.0617
377.07 K, 4439 kPa | 0.0606
377.07 K, 4473 kPa | 0.06
377.08 K, 4495 kPa | 0.0595
377.08 K, 4538 kPa | 0.0587
377.17 K, 4275 kPa | 0.0671
377.18 K, 4270 kPa | 0.0648
377.19 K, 4266 kPa | 0.063
377.24 K, 4249 kPa | 0.0555
377.26 K, 4241 kPa | 0.0529
377.27 K, 4235 kPa | 0.0513
377.29 K, 4226 kPa | 0.0494
377.32 K, 4211 kPa | 0.0466
377.36 K, 4613 kPa | 0.0583
377.36 K, 4653 kPa | 0.0578
377.36 K, 4697 kPa | 0.0578
377.36 K, 4760 kPa | 0.0576
377.37 K, 4836 kPa | 0.0569
377.37 K, 4907 kPa | 0.0562
377.51 K, 4164 kPa | 0.0415
377.55 K, 4126 kPa | 0.039
377.58 K, 4079 kPa | 0.0366
377.73 K, 4701 kPa | 0.055
377.83 K, 4369 kPa | 0.0678
377.83 K, 4381 kPa | 0.0681
377.83 K, 4390 kPa | 0.0681
377.83 K, 4400 kPa | 0.0678
377.84 K, 4360 kPa | 0.0668
377.84 K, 4411 kPa | 0.0668
377.84 K, 4420 kPa | 0.0658
377.85 K, 4351 kPa | 0.0652
377.85 K, 4432 kPa | 0.0652
377.85 K, 4441 kPa | 0.064
377.86 K, 4451 kPa | 0.0631
377.86 K, 4460 kPa | 0.0623
377.86 K, 4997 kPa | 0.0548
